Experimental data from article PMC3810934 (Emerging Infectious Diseases, 2013).
Where two headings read alike, the source gives them in different places.

Key:
[1] = target: A/Anhui/1/2013 (E2/S1) virus isolate neuraminidase (Influenza A virus (A/Anhui/1/2013(H7N9)), UniProt A0A024E3Q2); type: biochemical; conditions: pH 6.5
[2] = target: A/Anhui/1/2013 (E2/S1) virus isolate neuraminidase (Influenza A virus (A/Anhui/1/2013(H7N9)), UniProt A0A024E3Q2); type: biochemical; conditions: pH 5.1
[3] = target: T1, Oseltamivir-sensitive A/Washington/01/2007 neuraminidase (Influenza A virus (H3N2), UniProt A7UPN3); experiment: biochemical
[4] = test system: A/Shanghai/1/2013 virus; conditions: cited from earlier work
[5] = target: T1, Oseltamivir-sensitive A/Washington/01/2007 neuraminidase; type: biochemical; conditions: pH 6.5
[6] = target: T2, Oseltamivir-sensitive A/California/12/2012 neuraminidase (Influenza A virus (H1N1pdm09), UniProt R4SI91); type: biochemical; conditions: pH 5.1
[7] = target: T2, Oseltamivir-sensitive A/California/12/2012 neuraminidase; type: biochemical; conditions: pH 6.5

Structure (SMILES)	IC50 [1]	IC50 [2]	IC50 [3]	Susceptibility on the basis of NI assay data [4]	IC50 ([1]; read-out: IC50)	IC50 [5]	IC50 [6]	IC50 ([2]; read-out: IC50)	IC50 [7]	IC50 ([3]; pH 5.1, read-out: IC50)
CC(=O)N[C@H]1[C@H]([C@H](O)[C@H](O)CO)OC(C(=O)O)=C[C@@H]1N=C(N)N [Zanamivir, zanamivir]	0.33 nM	1 nM	0.45 nM	susceptible	–	–	–	–	–	–
CCC(CC)[C@H](NC(C)=O)[C@@H]1[C@H](O)[C@@H](C(=O)O)C[C@H]1N=C(N)N [Peramivir, peramivir]	–	–	–	–	0.06 nM	0.08 nM	0.07 nM	0.12 nM	0.06 nM	0.1 nM
CO[C@@H]([C@@H]1OC(C(=O)O)=C[C@H](NC(=N)N)[C@H]1NC(C)=O)[C@H](O)CO [Laninamivir, laninamivir]	0.46 nM	1.29 nM	–	–	–	–	–	–	–	–
